Assay results reported in the supplement of paper PMC10011410.
± gives the standard deviation of the averaged measurements.

How the values were obtained:
Settings in all cases: 24 h
U-2 OS [1] = assay: intracellular GSH:GSSG ratio (calculated); higher = more reduced glutathione pool
Procedure: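 Intracellular glutathione in U-2 OS cells after 24 h compound treatment at 5, 10 and 20 uM (some at 40 and 80 uM). Total glutathione and GSSG were measured with the GSH/GSSG-Glo kit, and the GSH:GSSG ratio was calculated. Mean of five technical replicate plates.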

U-2 OS [2] = assay: cell viability (CellTiter-Glo) relative to DMSO (% of control); higher = more viable
Procedure: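 Cell viability of U-2 OS cells by CellTiter-Glo after 24 h compound treatment at 5, 10 and 20 uM (some at 40 and 80 uM), measured in parallel with the glutathione assay, as percent of DMSO control. Five technical replicate plates, averaged.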

U-2 OS [3] = assay: total intracellular glutathione (GSH + GSSG) relative to DMSO (% of control); higher = more glutathione
Procedure: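 Total intracellular glutathione (GSH + GSSG) in U-2 OS cells by GSH/GSSG-Glo after 24 h compound treatment at 5, 10 and 20 uM (some at 40 and 80 uM), as percent of DMSO control. Five technical replicate plates, averaged.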

U-2 OS [4] = assay: cell painting activity score (Mahalanobis distance from DMSO wells); higher = stronger morphological phenotype
Procedure, shortened: (§1)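 In this cell painting assay, roughly 1,500 U-2 OS cells per well in 384-well plates were pin-tool treated at 37 °C for 24 h, typically at six 2-fold steps from 20 μM down to 625 nM. Cells were stained with MitoTracker, concanavalin A, phalloidin, wheat germ agglutinin, Hoechst and SYTO 14, imaged on an Opera Phenix, and analysed in CellProfiler with normalization to same-plate DMSO cells. Reported values are means of four replicate plates, with the activity score defined as the Mahalanobis distance from DMSO wells and cell count defined relative to DMSO wells.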

U-2 OS [5] = assay: relative cell count vs DMSO (cell painting) (fraction of DMSO control); higher = more cells remaining (less cytotoxic)
Procedure, shortened: as §1

`C=C(C)[C@@H](CC=C(C)C)C[C@@]12C[C@@H](CC=C(C)C)C(C)(C)[C@@](CC=C(C)C)(C(=O)/C(=C(\O)c3ccc(O)c(O)c3)C1=O)C2=O` was tested, and the “intracellular GSH:GSSG ratio” value (U-2 OS [1]; 5 µM) was 21, the “intracellular GSH:GSSG ratio” value (U-2 OS [1]; 10 µM) was 16.1 and the “intracellular GSH:GSSG ratio” value (U-2 OS [1]; 20 µM) was 24.5. The “intracellular GSH:GSSG ratio” value (U-2 OS [1]; 40 µM) was 21.3, the “intracellular GSH:GSSG ratio” value (U-2 OS [1]; 80 µM) was 0.823 and the cell viability (U-2 OS [2]; 5 µM) was 97 ± 2.7. The cell viability (U-2 OS [2]; 10 µM) was 101 ± 5.7, the cell viability (U-2 OS [2]; 20 µM) was 86.3 ± 7 and the cell viability (U-2 OS [2]; 40 µM) was 44.8 ± 18. It also gave a cell viability (U-2 OS [2]; 80 µM) of 0.589 ± 0.13, a total intracellular glutathione (U-2 OS [3]; 5 µM) of 96.4 ± 3.2 and a total intracellular glutathione (U-2 OS [3]; 10 µM) of 89 ± 1.9. It also gave a total intracellular glutathione (U-2 OS [3]; 20 µM) of 76.7 ± 6.1, a total intracellular glutathione (U-2 OS [3]; 40 µM) of 53.2 ± 8.8 and a total intracellular glutathione (U-2 OS [3]; 80 µM) of 5.32 ± 1.5. For the same compound, the “cell painting activity score” value (U-2 OS [4]; 0.625 µM) was 5.64, the “cell painting activity score” value (U-2 OS [4]; 1.25 µM) was 4.81 and the “cell painting activity score” value (U-2 OS [4]; 2.5 µM) was 6.25. For the same compound, the “cell painting activity score” value (U-2 OS [4]; 5 µM) was 5.03, the “cell painting activity score” value (U-2 OS [4]; 10 µM) was 9.54 and the “cell painting activity score” value (U-2 OS [4]; 20 µM) was 9.17. The “cell painting activity score” value (U-2 OS [4]; 40 µM) was 14.9, the “cell painting activity score” value (U-2 OS [4]; 80 µM) was 28.1 and the relative cell count (U-2 OS [5]; 0.625 µM) was 0.996. For the same compound, the relative cell count (U-2 OS [5]; 1.25 µM) was 0.96, the relative cell count (U-2 OS [5]; 2.5 µM) was 0.961 and the relative cell count (U-2 OS [5]; 5 µM) was 0.986. It also gave a relative cell count (U-2 OS [5]; 10 µM) of 0.836, a relative cell count (U-2 OS [5]; 20 µM) of 0.53 and a relative cell count (U-2 OS [5]; 40 µM) of 0.267. For the same compound, the relative cell count (U-2 OS [5]; 80 µM) was 0.116.

With `c1cc(SSc2ccns2)sn1` the “intracellular GSH:GSSG ratio” value (U-2 OS [1]; 5 µM) was 24.1, the “intracellular GSH:GSSG ratio” value (U-2 OS [1]; 10 µM) was 6.28 and the “intracellular GSH:GSSG ratio” value (U-2 OS [1]; 20 µM) was 4.87. For the same compound, the “intracellular GSH:GSSG ratio” value (U-2 OS [1]; 40 µM) was 0.0649, the cell viability (U-2 OS [2]; 5 µM) was 94.5 ± 3.6 and the cell viability (U-2 OS [2]; 10 µM) was 62.9 ± 10. The cell viability (U-2 OS [2]; 20 µM) was 29 ± 8.2, the cell viability (U-2 OS [2]; 40 µM) was 2.06 ± 0.76 and the cell viability (U-2 OS [2]; 80 µM) was 0.459 ± 0.058. The total intracellular glutathione (U-2 OS [3]; 5 µM) was 93.2 ± 6.5, the total intracellular glutathione (U-2 OS [3]; 10 µM) was 67.1 ± 14 and the total intracellular glutathione (U-2 OS [3]; 20 µM) was 31.5 ± 34. For the same compound, the total intracellular glutathione (U-2 OS [3]; 40 µM) was 25.6 ± 43, the total intracellular glutathione (U-2 OS [3]; 80 µM) was 22.5 ± 43 and the “cell painting activity score” value (U-2 OS [4]; 0.625 µM) was 5.35. For the same compound, the “cell painting activity score” value (U-2 OS [4]; 1.25 µM) was 4.46, the “cell painting activity score” value (U-2 OS [4]; 2.5 µM) was 6.31 and the “cell painting activity score” value (U-2 OS [4]; 5 µM) was 8.63. The “cell painting activity score” value (U-2 OS [4]; 10 µM) was 14.8, the “cell painting activity score” value (U-2 OS [4]; 20 µM) was 17.2 and the relative cell count (U-2 OS [5]; 0.625 µM) was 0.85. The relative cell count (U-2 OS [5]; 1.25 µM) was 0.816, the relative cell count (U-2 OS [5]; 2.5 µM) was 0.752 and the relative cell count (U-2 OS [5]; 5 µM) was 0.635. It also gave a relative cell count (U-2 OS [5]; 10 µM) of 0.137 and a relative cell count (U-2 OS [5]; 20 µM) of 0.116.

With `COc1ccc(C[C@H](N)C(=O)N[C@H]2[C@@H](O)[C@H](n3cnc4c(N(C)C)ncnc43)O[C@@H]2CO)cc1` the “intracellular GSH:GSSG ratio” value (U-2 OS [1]; 5 µM) was 3.09, the “intracellular GSH:GSSG ratio” value (U-2 OS [1]; 10 µM) was 1.12 and the cell viability (U-2 OS [2]; 5 µM) was 10.2 ± 1.6. The cell viability (U-2 OS [2]; 10 µM) was 2.46 ± 0.44, the cell viability (U-2 OS [2]; 20 µM) was 1.28 ± 0.26 and the total intracellular glutathione (U-2 OS [3]; 5 µM) was 12.5 ± 1.3. For the same compound, the total intracellular glutathione (U-2 OS [3]; 10 µM) was 4.88 ± 0.7, the total intracellular glutathione (U-2 OS [3]; 20 µM) was 4.55 ± 0.68 and the “cell painting activity score” value (U-2 OS [4]; 0.625 µM) was 13.8. The “cell painting activity score” value (U-2 OS [4]; 1.25 µM) was 17.7, the “cell painting activity score” value (U-2 OS [4]; 2.5 µM) was 20.2 and the “cell painting activity score” value (U-2 OS [4]; 5 µM) was 25.3. The “cell painting activity score” value (U-2 OS [4]; 10 µM) was 32.9, the “cell painting activity score” value (U-2 OS [4]; 20 µM) was 33.9 and the relative cell count (U-2 OS [5]; 0.625 µM) was 1.04. It also gave a relative cell count (U-2 OS [5]; 1.25 µM) of 0.891, a relative cell count (U-2 OS [5]; 2.5 µM) of 0.637 and a relative cell count (U-2 OS [5]; 5 µM) of 0.283. The relative cell count (U-2 OS [5]; 10 µM) was 0.157 and the relative cell count (U-2 OS [5]; 20 µM) was 0.0622.

In the case of `CN(C)C/C=C/C(=O)Nc1ccc(C(=O)Nc2cccc(Nc3ncc(Cl)c(-c4c[nH]c5ccccc45)n3)c2)cc1`, the “intracellular GSH:GSSG ratio” value (U-2 OS [1]; 5 µM) is reported as 2.92, the “intracellular GSH:GSSG ratio” value (U-2 OS [1]; 10 µM) is reported as 3.73 and the “intracellular GSH:GSSG ratio” value (U-2 OS [1]; 20 µM) is reported as 6.62. The cell viability (U-2 OS [2]; 5 µM) was 34.1 ± 4.7, the cell viability (U-2 OS [2]; 10 µM) was 31 ± 4.3 and the cell viability (U-2 OS [2]; 20 µM) was 10.8 ± 2.7. It also gave a total intracellular glutathione (U-2 OS [3]; 5 µM) of 26.7 ± 2.8, a total intracellular glutathione (U-2 OS [3]; 10 µM) of 20.6 ± 2.5 and a total intracellular glutathione (U-2 OS [3]; 20 µM) of 11.6 ± 2.1. For the same compound, the “cell painting activity score” value (U-2 OS [4]; 0.625 µM) was 22.6, the “cell painting activity score” value (U-2 OS [4]; 1.25 µM) was 23.3 and the “cell painting activity score” value (U-2 OS [4]; 2.5 µM) was 23.3. For the same compound, the “cell painting activity score” value (U-2 OS [4]; 5 µM) was 19.2, the “cell painting activity score” value (U-2 OS [4]; 10 µM) was 18.5 and the “cell painting activity score” value (U-2 OS [4]; 20 µM) was 29.4. For the same compound, the relative cell count (U-2 OS [5]; 0.625 µM) was 0.429, the relative cell count (U-2 OS [5]; 1.25 µM) was 0.45 and the relative cell count (U-2 OS [5]; 2.5 µM) was 0.407. The relative cell count (U-2 OS [5]; 5 µM) was 0.251, the relative cell count (U-2 OS [5]; 10 µM) was 0.152 and the relative cell count (U-2 OS [5]; 20 µM) was 0.164.
